Measured values: patent US20200216441A1, “PESTICIDALLY ACTIVE HETEROCYCLIC DERIVATIVES WITH SULFUR CONTAINING SUBSTITUENTS” (SYNGENTA PARTICIPATIONS AG, priority 2017, published 2020)

How the values were obtained:
[1] = test system: Euschistus heros (Neotropical Brown Stink Bug); test: whole plant or invertebrate; assay type: in vivo; settings: 120 h, application rate of 200 ppm, N2 nymphs on sprayed soybean leaves, 5 days after infestation, read-out: effect in at least one of the two categories (mortality or growth inhibition)
[2] = test system: Myzus persicae (Green Peach Aphid); test: whole plant or invertebrate; assay type: in vivo; settings: 144 h, test rate of 24 ppm, systemic, roots of infested pea seedlings in test solution, 6 days
[3] = test system: Plutella xylostella (Diamond Back Moth); test: whole plant or invertebrate; assay type: in vivo; settings: 120 h, application rate of 200 ppm, L2 larvae on treated artificial diet, 5 days after infestation, read-out: effect in at least one of the two categories (mortality or growth inhibition)
[4] = test system: Myzus persicae (Green Peach Aphid); test: whole plant or invertebrate; settings: foliar, 144 h
[5] = test system: Spodoptera littoralis (Egyptian Cotton Leaf Worm); test: whole plant or invertebrate; settings: in Gossypium barbadense, foliar, 72 h, read-out: control (mortality, anti-feeding effect, growth inhibition)
[6] = test system: Bemisia tabaci (Cotton White Fly); settings: in Gossypium hirsutum, foliar, 144 h
[7] = test system: Tetranychus urticae (Two-Spotted Spider Mite); settings: foliar, 192 h
[8] = test system: Frankliniella occidentalis (Western Flower Thrips); settings: foliar, 168 h
[9] = test system: Spodoptera littoralis (Egyptian Cotton Leaf Worm); test: Spodoptera littoralis (Egyptian Cotton Leaf Worm), uptake by lettuce roots from agar; assay type: in vivo; settings: 144 h, test rate of 12.5 ppm, compound in agar absorbed by lettuce roots, 6 days after infestation, read-out: effect in at least one of the three categories (mortality, anti-feeding, or growth inhibition)
Text: Example B10: Spodoptera littoralis (Egyptian Cotton Leaf Worm)
Test compounds were applied by pipette from 10′000 ppm DMSO stock solutions into 24-well plates and mixed with agar. Lettuce seeds were placed onto the agar and the multi well plate was closed by another plate which contained also agar. After 7 days the compound was absorbed by the roots and the lettuce grew into the lid plate. The lettuce leaves were then cut off into the lid plate. Spodoptera eggs were pipetted through a plastic stencil onto a humid gel blotting paper and the lid plate was closed with it.

[10] = test system: Diabrotica Balteata (Corn Root Worm); test: Diabrotica balteata (Corn Root Worm); settings: in Zea mays, 96 h, read-out: effect in at least one of the two categories (mortality or growth inhibition)

CCS(=O)(=O)c1cc(OC(C)C)cnc1-c1nc2cc([S+]([O-])C(F)(F)F)ncc2n1C (centres unmarked) [Compound P60, 2-(3-ethylsulfonyl-5-isopropoxy-2-pyridyl)-3-methyl-6-(trifluoromethylsulfinyl)imidazo[4,5-c]pyridine]
≥ 80%: percent effect (mortality or growth inhibition) at 200 ppm [1] | mortality at 24 ppm [2] | percent effect (mortality or growth inhibition) at 200 ppm [3] | mortality at 200 ppm [4] | mortality at 200 ppm [5] | mortality at 200 ppm [6] | mortality at 200 ppm [7] | mortality at 200 ppm [8]

CCS(=O)(=O)c1cc(OCC2CC2)cnc1-c1nc2cc(C(F)(F)F)ncc2n1C [Compound P24, 2-[5-(cyclopropylmethoxy)-3-ethylsulfonyl-2-pyridyl]-3-methyl-6-(trifluoromethyl)imidazo[4,5-c]pyridine]
≥ 80%: percent effect (mortality or growth inhibition) at 200 ppm [1] | mortality at 24 ppm [2] | percent effect (mortality or growth inhibition) at 200 ppm [3] | percent effect (mortality, anti-feeding or growth inhibition) at 12.5 ppm [9] | mortality at 200 ppm [4] | mortality at 200 ppm [5] | mortality at 200 ppm [10]

CCS(=O)(=O)c1cc(OC(CF)CF)cnc1-c1nc2cc(C(F)(F)F)ncc2n1C [Compound P53, 2-[3-ethylsulfonyl-5-[2-fluoro-1-(fluoromethyl)ethoxy]-2-pyridyl]-3-methyl-6-(trifluoromethyl)imidazo[4,5-c]pyridine]
≥ 80%: percent effect (mortality or growth inhibition) at 200 ppm [1] | mortality at 24 ppm [2] | percent effect (mortality or growth inhibition) at 200 ppm [3] | mortality at 200 ppm [4] | mortality at 200 ppm [5] | mortality at 200 ppm [10] | mortality at 200 ppm [6] | mortality at 200 ppm [7] | mortality at 200 ppm [8]

CCS(=O)(=O)c1cc(OC(C)C)cnc1-c1nc2cc(C(F)(F)F)ncc2n1C [Compound P28, 2-(3-ethylsulfonyl-5-isopropoxy-2-pyridyl)-3-methyl-6-(trifluoromethyl)imidazo[4,5-c]pyridine]
≥ 80%: percent effect (mortality or growth inhibition) at 200 ppm [1] | mortality at 24 ppm [2] | percent effect (mortality or growth inhibition) at 200 ppm [3] | percent effect (mortality, anti-feeding or growth inhibition) at 12.5 ppm [9] | mortality at 200 ppm [4] | mortality at 200 ppm [5] | mortality at 200 ppm [10] | mortality at 200 ppm [6]

CCS(=O)(=O)c1cc(OC(C)(C)C#N)ccc1-c1nc2cc(C(F)(F)F)ncc2n1C [Compound P103, 2-[3-ethylsulfonyl-4-[3-methyl-6-(trifluoromethyl)imidazo[4,5-c]pyridin-2-yl]phenoxy]-2-methyl-propanenitrile]
≥ 80%: percent effect (mortality or growth inhibition) at 200 ppm [1] | mortality at 24 ppm [2] | percent effect (mortality or growth inhibition) at 200 ppm [3] | mortality at 200 ppm [4] | mortality at 200 ppm [5] | mortality at 200 ppm [10] | mortality at 200 ppm [6] | mortality at 200 ppm [7] | mortality at 200 ppm [8]

CCS(=O)(=O)c1cc(ON=C(C)C)cnc1-c1nc2cc(C(F)(F)F)ncc2n1C [Compound P97, N-[[5-ethylsulfonyl-6-[3-methyl-6-(trifluoromethyl)imidazo[4,5-c]pyridin-2-yl]-3-pyridyl]oxy]propan-2-imine]
≥ 80%: percent effect (mortality or growth inhibition) at 200 ppm [1] | percent effect (mortality or growth inhibition) at 200 ppm [3] | percent effect (mortality, anti-feeding or growth inhibition) at 12.5 ppm [9] | mortality at 200 ppm [4] | mortality at 200 ppm [5] | mortality at 200 ppm [10] | mortality at 200 ppm [6]

CCS(=O)(=O)c1cc(OCC(C)(F)F)cnc1-c1nc2cc(C(F)(F)F)ncc2n1C [Compound P41, 2-[5-(2,2-difluoropropoxy)-3-ethylsulfonyl-2-pyridyl]-3-methyl-6-(trifluoromethyl)imidazo[4,5-c]pyridine]
≥ 80%: percent effect (mortality or growth inhibition) at 200 ppm [1] | mortality at 24 ppm [2] | percent effect (mortality or growth inhibition) at 200 ppm [3] | mortality at 200 ppm [4] | mortality at 200 ppm [5] | mortality at 200 ppm [10] | mortality at 200 ppm [6] | mortality at 200 ppm [8]
